# Source: patent US5232912A, “Anticoagulant peptides” (Merrell Dow Pharmaceuticals Inc., priority 1992, dated 1993)
# Target: T1, bovine thrombin (Bos taurus, UniProt P00735)
# T1 construct: A bovine thrombin solution (50 ul; 0.2 pmol; Sigma); purchased Sigma
# Assay: Fibrin clot inhibition assay
# Type: biochemical
# Set-up: unit not given here
# Settings: bovine thrombin 0.2 pmol, 10 minute incubation at 24° C., 1:10 diluted human plasma, turbidity (A405); two-fold delay of fibrin clot present at 15 minutes in the control well
# Description: Human plasma was collected in EDTA (final concentration=0.1%) from a healthy volunteer who had fasted for 12 hours. The plasma was immediately sterilized by passing it through a 0.2 u filter membrane (Gelman) then aliquoted into 1 ml portions and stored at -20° C. In all assays, unsulfated Nα-acetylhirudin 45-65 was included as a control. A bovine thrombin solution (50 ul; 0.2 pmol; Sigma) was added to the wells of a 96 well microtiter plate (Falcon) containing 50 ul of a solution and a 10 minute incubation at 24° C., 100 ul of 1:10 diluted human plasma in 0.12M sodium chloride, 0.01M sodium phosphate, 0.01% sodium azide, 0.1% bovine serum albumin (pH 7.4) was added. The mixture was agitated for 20 seconds and the turbidity (A405) of the solution was measured at 5 minute intervals by an autoreader (Bio-Tek Model EL 309). Reported is the ability of a 5 uM concentration of peptide to delay two-fold the amount of fibrin clot present at 15 minutes in the control well.
row,Fibrin Clot Inhibition,SMILES
1,0.88,"CC[C@H](C)[C@H](NC(=O)[C@@H]1CCCN1C(=O)[C@H](CCC(=O)O)NC(=O)[C@H](Cc1ccc(O)cc1)NC(=O)CCC(=O)O)C(=O)N1CCCC[C@H]1C(=O)N[C@@H](CCC(=O)O)C(=O)N[C@@H](CCC(=O)O)C(=O)N[C@@H](C)C(=O)N[C@@H](CC1CCCCC1)C(=O)N[C@H](CCC(=O)O)C(=O)O [Example 1, Suc-Tyr-Glu-Pro-Ile-Pip-Glu-Glu-Ala-Cha-D-Glu-OH]"
2,1.9,"CC[C@H](C)[C@H](NC(=O)[C@@H]1CCCCN1C(=O)[C@H](CCC(=O)O)NC(=O)[C@H](Cc1ccc(O)cc1)NC(=O)CCC(=O)O)C(=O)N1CCC[C@H]1C(=O)N[C@@H](CCC(=O)O)C(=O)N[C@@H](CCC(=O)O)C(=O)N[C@@H](C)C(=O)N[C@@H](CC1CCCCC1)C(=O)N[C@H](CCC(=O)O)C(=O)O [Example 2, Suc-Tyr-Glu-Pip-Ile-Pro-Glu-Glu-Ala-Cha-D-Glu-OH]"
3,0.82,"CC[C@H](C)[C@H](NC(=O)[C@@H]1Cc2ccccc2CN1C(=O)[C@H](CCC(=O)O)NC(=O)[C@H](Cc1ccc(O)cc1)NC(=O)CCC(=O)O)C(=O)N1CCC[C@H]1C(=O)N[C@@H](CCC(=O)O)C(=O)N[C@@H](CCC(=O)O)C(=O)N[C@@H](C)C(=O)N[C@@H](CC1CCCCC1)C(=O)N[C@H](CCC(=O)O)C(=O)O [Example 5, Suc-Tyr-Glu-Tiq-Ile-Pro-Glu-Glu-Ala-Cha-D-Glu-OH]"
4,0.63,"CC[C@H](C)[C@H](NC(=O)[C@@H]1CCCN1C(=O)[C@H](CCC(=O)O)NC(=O)[C@H](Cc1ccc(O)cc1)NC(=O)CCC(=O)O)C(=O)N1Cc2ccccc2C[C@H]1C(=O)N[C@@H](CCC(=O)O)C(=O)N[C@@H](CCC(=O)O)C(=O)N[C@@H](C)C(=O)N[C@@H](CC1CCCCC1)C(=O)N[C@H](CCC(=O)O)C(=O)O [Example 6, Suc-Tyr-Glu-Pro-Ile-Tiq-Glu-Glu-Ala-Cha-D-Glu-OH]"
